Tests used:
Sperms [1] = test: Toxicity screening: cell viability by MTS assay; format: cell-based, mice; details: for Corrected average absorbance of cell-reduced MTS at 490 nm: culture media background subtracted; for Average absorbance of cell-reduced MTS at 490 nm: average of trials 1-3
Experimental: (§1) Male BALB/c mice (12-16 week old) were euthanized by CO2-inhalation. The cauda epididymes was clipped and the upper portions of the vas deferens freed from surrounding tissue. Three-four cuts were made using scissors and forceps across the epididymes and several cuts along the length of the vas deferens. Sperm were allowed to swim out of the tissue. The dish was placed in a 5% CO2 incubator set at 37° C. for 10-15 minutes. The solution of sperm was diluted (50 μl sperm+450 μl complete medium) in Whittens/HCO3/BSA. Sperm was removed from the very top or sides of sperm drop to obtain the sperm with highest motility. The dish was then returned to the 5% CO2 incubator set at 37° C. to allow the sperm to capacitate for 1-3 hrs prior to use.
In addition, cell viability with n-propyl bromide was measured by MTS assay (Promega, Madison, Wis.). MTS [3-(4,5-dimethylthiazol-2-yl)-5-(3-carboxymethoxyphenyl)-2-(4-sulfophenyl)-2H-tetrazolium, inner salt] was utilized according to the manufacturer's instructions. The culture growth medium consisted of Whittens-HEPES complete media, (pH 7.2-7.4) prepared and supplemented with 30 mM NaHCO3 and 10 mg/mL BSA (Bovine Serum Albumin, Sigma A0281, fatty acid free). 250 mL of Whittens-Hepes complete media includes 1461 mg of NaCl, 87.6 mg of KCl, 40.8 mg of KH2PO4, 36.1 mg of MgSO4, 247.8 mg of glucose (dextrose), 22.01 mg of pyruvic acid, 130.92 mg of lactic acid (hemi-Ca), and 1191.5 mg of HEPES. After treatments of the sperms, 30 μL of MTS solution was added to each well and pipetted up and down for ten times to ensure properly mixing and incubation was prolonged for 2 h at 37° C., 5% CO2.
Absorbance observations for trials 1-3 and calculated average are expressed as optical density. The absorbance of cell-reduced MTS was read at 490 nm on a spectrophotometer Spectra Max Plus 384, and optical density for absorbance readings is provided in Table II. Absorbance is directly proportional to the number of living cells in culture. Thus, a reduction in absorbance normalized to a control indicates toxicity to a cell. Background absorbance was measured for the culture media only in three trials. An average absorbance was calculated from the three trials. The average optical density for the three trials for the culture media (background) was then subtracted from the average optical density of the various concentration assays for n-propyl bromide (expressed in terms of ppm of n-propyl bromide). Three control trials using only phosphate buffered saline were also measured. The corrected, average optical density of each of the experimental assays was then compared to the corrected, average optical density of the control (PBS only) assays. The comparison is expressed as the percentage of MTS reduction relative to the normalized absorbance of control samples.

Sperms [2] = test: Real-Time PCR Stress and Toxicity PathwayFinder RT2 Profiler array on treated sperm; format: cell-based, mice; details: 50 ppm
Experimental: as §1
Sperms (10^4) were placed in 96-well plate in complete media and treated with n-propyl bromide (50 ppm) or phosphate buffered saline (control) and incubated for 10 minutes in a 5% CO2 incubator set at 37° C. The dish with sperm was then washed 3-times with phosphate buffered saline and returned to the 5% CO2 incubator set at 37° C. for a further 24 hours. Sperm were then collected by centrifugation and subjected to the Stress and Toxicity PathwayFinder™ RT^2 Profiler™ assay according to the manufacturer's instructions (SA Biosciences, Frederick, Md.). This PCR Array profiles the expression of 84 genes whose expression level is indicative of stress and toxicity. […] The array also includes genes representative of pathways activated by prolonged stress, which range from cell death by apoptosis or necrosis to growth arrest and senescence to proliferation and carcinogenesis.

How did the “Corrected average absorbance of cell-reduced MTS at 490 nm” value (Sperms [1]; 100 ppm) turn out when CCCBr [n-propyl bromide, 1-bromopropane] was run?
Its value is 0.4 optical density.

And the “% of control (MTS reduction relative to PBS only control)” value (Sperms [1]; 200 ppm)?
The value was 600%.

What about the “Absorbance of cell-reduced MTS at 490 nm, Trial 1” value (Sperms [1]; 200 ppm) of the same compound?
The value was 0.8 optical density.

And the “Absorbance of cell-reduced MTS at 490 nm, Trial 2” value (Sperms [1]; 200 ppm)?
The value was 0.9 optical density.

And the “Absorbance of cell-reduced MTS at 490 nm, Trial 3” value (Sperms [1]; 200 ppm)?
The value was 0.7 optical density.

And the “Average absorbance of cell-reduced MTS at 490 nm” value (Sperms [1]; 200 ppm)?
The value was 0.8 optical density.

And the “Corrected average absorbance of cell-reduced MTS at 490 nm” value (Sperms [1]; 200 ppm)?
Its value is 0.6 optical density.

And the “% of control (MTS reduction relative to PBS only control)” value (Sperms [1]; 600 ppm)?
Its value is 900%.

And the “Absorbance of cell-reduced MTS at 490 nm, Trial 1” value (Sperms [1]; 600 ppm)?
The value was 1.2 optical density.

And the “Absorbance of cell-reduced MTS at 490 nm, Trial 2” value (Sperms [1]; 600 ppm)?
Its value is 1.1 optical density.

And the “Absorbance of cell-reduced MTS at 490 nm, Trial 3” value (Sperms [1]; 600 ppm)?
The value was 0.9 optical density.

What about the “Average absorbance of cell-reduced MTS at 490 nm” value (Sperms [1]; 600 ppm) of the same compound?
The value was 1.1 optical density.

What about the “Corrected average absorbance of cell-reduced MTS at 490 nm” value (Sperms [1]; 600 ppm) of the same compound?
The value was 0.9 optical density.

What about the “cell toxicity (MTS assay, Table II)” value (Sperms [1]; at concentrations of 50 ppm or less) of the same compound?
Its value is “does not result in significant cell toxicity”.

What about the “cell death, necrosis, mutigencity, or DNA damage (PCR array, Table I)” value (Sperms [2]; a two-fold or greater change might be significant) of the same compound?
Its value is “no significant cell death, necrosis, mutigencity, or DNA damage was observed”.

And the “Fold Change, gene APFA1 (Apoptotic peptidase activating factor 1)” value (Sperms [2]; APFA1, NM_001160, Apoptosis and Senescence, 10 minutes, washed, further 24 hours)?
The value was −1.04 fold.

And the “Fold Change, gene ATM (Ataxia telangiectasia mutated)” value (Sperms [2]; ATM, NM_00051, Cell Cycle Control and DNA Damage Repair, 10 minutes, washed, further 24 hours)?
The value was −1.01 fold.

And the “Fold Change, gene BAD (BCL2 associated agonist of cell death)” value (Sperms [2]; BAD, NM_004322, Apoptosis and Senescence, 10 minutes, washed, further 24 hours)?
Its value is −1.00 fold.

And the “Fold Change, gene BAX (BCL2 associated X protein)” value (Sperms [2]; BAX, NM_004324, Apoptosis and Senescence, 10 minutes, washed, further 24 hours)?
The value was −1.25 fold.

And the “Fold Change, gene BCL2 (B-cell CLL/lymphoma 2)” value (Sperms [2]; BCL2, NM_000633, Apoptosis and Senescence, 10 minutes, washed, further 24 hours)?
Its value is −1.24 fold.

What about the “Fold Change, gene BCL2L1 (BCL2-like 1)” value (Sperms [2]; BCL2L1, NM_138578, Apoptosis and Senescence, 10 minutes, washed, further 24 hours) of the same compound?
The value was −1.06 fold.

And the “Fold Change, gene BRCA1 (Breast cancer1, early onset)” value (Sperms [2]; BRCA1, NM_007294, Cell Cycle Control and DNA Damage Repair, 10 minutes, washed, further 24 hours)?
Its value is −1.23 fold.

And the “Fold Change, gene CASP8 (Caspase 8, apoptosis related cysteine peptidase)” value (Sperms [2]; CASP8, NM_001228, Apoptosis and Senescence, 10 minutes, washed, further 24 hours)?
The value was −1.57 fold.

And the “Fold Change, gene CCNE1 (Cyclin E1)” value (Sperms [2]; CCNE1, NM_001238, Cell Cycle Control and DNA Damage Repair, 10 minutes, washed, further 24 hours)?
The value was −1.06 fold.

And the “Fold Change, gene CDC25A (Cell division cycle 25, homolog A)” value (Sperms [2]; CDC25A, NM_001789, Cell Cycle Control and DNA Damage Repair, 10 minutes, washed, further 24 hours)?
The value was −1.04 fold.

And the “Fold Change, gene CDK4 (Cyclin-dependent kinase 4)” value (Sperms [2]; CDK4, NM_000075, Cell Cycle Control and DNA Damage Repair, 10 minutes, washed, further 24 hours)?
The value was −1.04 fold.

What about the “Fold Change, gene CDKN2A (Cyclin dependent kinase inhibitor 2A)” value (Sperms [2]; CDKN2A, NM_000077, Cell Cycle Control and DNA Damage Repair, 10 minutes, washed, further 24 hours) of the same compound?
Its value is −1.05 fold.

What about the “Fold Change, gene CDKNA1 (Cyclin dependent kinase inhibitor 1A)” value (Sperms [2]; CDKNA1, NM_000389, Cell Cycle Control and DNA Damage Repair, 10 minutes, washed, further 24 hours) of the same compound?
Its value is −1.25 fold.

And the “Fold Change, gene CFLAR (CASP8 & FADD like apoptosis regulator)” value (Sperms [2]; CFLAR, NM_003879, Apoptosis and Senescence, 10 minutes, washed, further 24 hours)?
The value was −1.11 fold.

And the “Fold Change, gene CHEK2 (CHk2, Checkpoint homolog)” value (Sperms [2]; CHEK2, NM_007194, Cell Cycle Control and DNA Damage Repair, 10 minutes, washed, further 24 hours)?
The value was −1.02 fold.

And the “Fold Change, gene E2F1 (E2F transcription factor 1)” value (Sperms [2]; E2F1, NM_005225, Cell Cycle Control and DNA Damage Repair, 10 minutes, washed, further 24 hours)?
Its value is −1.17 fold.

And the “Fold Change, gene GZMA (Granzyme A)” value (Sperms [2]; GZMA, NM_006144, Apoptosis and Senescence, 10 minutes, washed, further 24 hours)?
Its value is −1.26 fold.

And the “Fold Change, gene HTATIP2 (HIV-1 tat interactive protein 2)” value (Sperms [2]; HTATIP2, NM_006410, Apoptosis and Senescence, 10 minutes, washed, further 24 hours)?
The value was −1.38 fold.

What about the “Fold Change, gene MDM2 (MDM2 p53 binding protein homolog)” value (Sperms [2]; MDM2, NM_002392, Cell Cycle Control and DNA Damage Repair, 10 minutes, washed, further 24 hours) of the same compound?
The value was −1.32 fold.

And the “Fold Change, gene RB1 (Retinoblastoma 1)” value (Sperms [2]; RB1, NM_000321, Cell Cycle Control and DNA Damage Repair, 10 minutes, washed, further 24 hours)?
Its value is −1.30 fold.

What about the “Fold Change, gene S100A4 (S100 calcium binding protein A4)” value (Sperms [2]; S100A4, NM_002961, Cell Cycle Control and DNA Damage Repair, 10 minutes, washed, further 24 hours) of the same compound?
Its value is −1.15 fold.

What about the “Fold Change, gene TERT (Telomerase reverse transcriptase)” value (Sperms [2]; TERT, NM_198253, Apoptosis and Senescence, 10 minutes, washed, further 24 hours) of the same compound?
The value was −1.16 fold.

And the “Fold Change, gene TNFRS1A (Tumor necrosis factor receptor super family member 1A)” value (Sperms [2]; TNFRS1A, NM_001065, Apoptosis and Senescence, 10 minutes, washed, further 24 hours)?
Its value is −1.36 fold.

What about the “Fold Change, gene TNFRSF10B (Tumor necrosis factor receptor super family member 10b)” value (Sperms [2]; TNFRSF10B, NM_003842, Apoptosis and Senescence, 10 minutes, washed, further 24 hours) of the same compound?
The value was −1.33 fold.

And the “Fold Change, gene TNFRSF25 (Tumor necrosis factor receptor super family member 25)” value (Sperms [2]; TNFRSF25, NM_003790, Apoptosis and Senescence, 10 minutes, washed, further 24 hours)?
Its value is −1.15 fold.

And the “Fold Change, gene TP53 (Tumor protein p53)” value (Sperms [2]; TP53, NM_000546, Cell Cycle Control and DNA Damage Repair, 10 minutes, washed, further 24 hours)?
The value was −1.06 fold.

Source: US20140329912A1, “CONTRACEPTIVE COMPOSITIONS AND METHODS OF CONTRACEPTION” (INTEGRITY PHARMACEUTICALS, LLC, priority 2011, published 2014)
